Drawing on US20240101556A1, “COMPOUNDS AND COMPOSITIONS FOR TREATING CONDITIONS ASSOCIATED WITH STING ACTIVITY” (IFM Due, Inc., priority 2021, published 2024), this text covers EC50 for 19 compounds.

Molecules are shown by their SMILES.

One may read the EC50 as the concentration at which the effect is half-maximal. A low value points to higher potency in that assay.

In this assay the target is T1, hSTING (Homo sapiens, UniProt Q86WV6, G230A/H232R/R293Q/R71H).
T1 construct: host or cells: THP1-Dual KO-IFNAR2 cells (human monocytic line)
T1 sequence (Q86WV6 whole entry R71H/G230A/H232R/R293Q): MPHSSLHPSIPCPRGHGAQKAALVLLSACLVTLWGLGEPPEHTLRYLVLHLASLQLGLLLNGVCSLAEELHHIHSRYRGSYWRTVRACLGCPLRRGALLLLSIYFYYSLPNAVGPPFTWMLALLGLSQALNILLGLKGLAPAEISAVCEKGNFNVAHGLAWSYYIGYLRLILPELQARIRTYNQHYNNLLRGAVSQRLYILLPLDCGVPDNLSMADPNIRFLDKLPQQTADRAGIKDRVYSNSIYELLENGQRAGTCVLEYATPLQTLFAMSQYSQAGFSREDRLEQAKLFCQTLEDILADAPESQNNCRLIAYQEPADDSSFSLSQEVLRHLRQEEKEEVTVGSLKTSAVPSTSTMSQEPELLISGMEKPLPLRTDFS
The assay is described as follows: STING reporter assay (luciferase) in THP1-Dual KO-IFNAR2 cells stimulated with 2′3′cGAMP. The assay is classed as cell-based. The following applies: 2′3′cGAMP 15 μM with Lipofectamine 2000, 24 h, luciferase reporter activity, compounds 0.0017-100 μM. On the procedure:
STING pathway activation by the compounds described herein was measured using THP1-Dual™ cells (KO-IFNAR2).
THP1-Dual™ KO-IFNAR2 Cells (obtained from invivogen) were maintained in RPMI, 10% FCS, 5 ml P/S, 2 mM L-glut, 10 mM Hepes, and 1 mM sodium pyruvate. Compounds were spotted in empty 384 well tissue culture plates (Greiner 781182) by Echo for a final concentration of 0.0017-100 μM. Cells were plated into the TC plates at 40 μL per well, 2×10E6 cells/mL. For activation with STING ligand, 2′3′cGAMP (MW 718.38, obtained from Invivogen), was prepared in Optimem media.
The following solutions were prepared for each 1×384 plate: • Solution A: 2 mL Optimem with one of the following stimuli: • 60 μL of 10 mM 2′3′cGAMP→150 μM stock • Solution B: 2 mL Optimem with 60 μL Lipofectamine 2000→Incubate 5 min at RT
2 mL of solution A and 2 m1 Solution B was mixed and incubated for 20 min at room temperature (RT). 20 μL of transfection solution (A+B) was added on top of the plated cells, with a final 2′3′cGAMP concentration of 15 μM. The plates were then centrifuged immediately at 340 g for 1 minute, after which they were incubated at 37° C., 5% CO2, >98% humidity for 24 h. Luciferase reporter activity was then measured. EC50 values were calculated by using standard methods known in the art.
Luciferase reporter assay: 10 μL of supernatant from the assay was transferred to white 384-plate with flat bottom and squared wells. One pouch of QUANTI-Luc™ Plus was dissolved in 25 mL of water. 100 μL of QLC Stabilizer per 25 mL of QUANTI-Luc™ Plus solution was added. 50 μL of QUANTI-Luc™ Plus/QLC solution per well was then added. Luminescence was measured on a Platereader (e.g., Spectramax I3X (Molecular Devices GF3637001)).
Luciferase reporter activity was then measured. EC50 values were calculated by using standard methods known in the art.
A general note: Reporter assays use an easily measured gene product as a stand-in for the process of interest.
Compound `CC(C)OC1CCC(N2CCN(c3ccc4[nH]cc(NC(=O)Nc5ccc(C(F)(F)F)cc5)c4n3)CC2)CC1` (stereo not shown) [Compound 113, 3-(5-{4-[4-(propan-2-yloxy)cyclohexyl]piperazin-1-yl}-1H-pyrrolo[3,2-b]pyridin-3-yl)-1-[4-(trifluoromethyl)phenyl]urea] returned an EC50 of 5 to 100 µM.
`CC(CC(F)(F)F)N1CCN(c2ccc3[nH]cc(NC(=O)Nc4ccc(C(F)(F)F)cc4)c3n2)CC1` (stereo not shown) [Compound 114, 3-{5-[4-(4,4,4-trifluorobutan-2-yl)piperazin-1-yl]-1H-pyrrolo[3,2-b]pyridin-3-yl}-1-[4-(trifluoromethyl)phenyl]urea] registered an EC50 of 5 to 100 µM.
`O=C(Nc1ccc(C(F)(F)F)cc1)Nc1c[nH]c2ccc(N3CCN(C4CCC(C(F)(F)F)CC4)CC3)nc12` (stereo not shown) [Compound 115, 3-(5-{4-[4-(trifluoromethyl)cyclohexyl]piperazin-1-yl}-1H-pyrrolo[3,2-b]pyridin-3-yl)-1-[4-(trifluoromethyl)phenyl]urea] gave an EC50 of 5 to 100 µM.
The compound `O=C(Nc1ccc(C(F)(F)F)cc1)Nc1c[nH]c2ccc(N3CCN(C4CCC(F)(F)CC4)CC3)nc12` [Compound 116, 3-{5-[4-(4,4-difluorocyclohexyl)piperazin-1-yl]-1H-pyrrolo[3,2-b]pyridin-3-yl}-1-[4-(trifluoromethyl)phenyl]urea] yielded an EC50 of 5 to 100 µM.
In turn, `O=C(Nc1ccc(C(F)(F)F)cc1)Nc1c[nH]c2ccc(N3CCN(CC4CC4)CC3)nc12` [Compound 117, 3-{5-[4-(cyclopropylmethyl)piperazin-1-yl]-1H-pyrrolo[3,2-b]pyridin-3-yl}-1-[4-(trifluoromethyl)phenyl]urea] had an EC50 of 5 to 100 µM.
In the case of `O=C(Nc1ccc(C(F)(F)F)cc1)Nc1c[nH]c2ccc(N3CCN(CC(F)(F)F)CC3)nc12` [Compound 118, 1-(5-(4-(2,2,2-trifluoroethyl)piperazin-1-yl)-1H-pyrrolo[3,2-b]pyridin-3-yl)-3-(4-(trifluoromethyl)phenyl)urea] it was 5 to 100 µM; in that of `O=C(Nc1ccc(C(F)(F)F)cc1)Nc1c[nH]c2ccc(N3CCN(Cc4cccnc4)CC3)nc12` [Compound 119, 3-(5-{4-[(pyridin-3-yl)methyl]piperazin-1-yl}-1H-pyrrolo[3,2-b]pyridin-3-yl)-1-[4-(trifluoromethyl)phenyl]urea], 1 to 5 µM; in that of `O=C(Nc1ccc(C(F)(F)F)cc1)Nc1c[nH]c2ccc(N3CCN(Cc4ccccn4)CC3)nc12` [Compound 120, 3-(5-{4-[(pyridin-2-yl)methyl]piperazin-1-yl}-1H-pyrrolo[3,2-b]pyridin-3-yl)-1-[4-(trifluoromethyl)phenyl]urea], 5 to 100 µM.
On to `O=C(Nc1ccc(C(F)(F)F)cc1)Nc1c[nH]c2ccc(N3CCN(Cc4ccccc4)CC3)nc12` [Compound 121, 3-[5-(4-benzylpiperazin-1-yl)-1H-pyrrolo[3,2-b]pyridin-3-yl]-1-[4-(trifluoromethyl)phenyl]urea], for which the EC50 is 5 to 100 µM.
As for `COCCN1CCN(c2ccc3[nH]cc(NC(=O)Nc4ccc(C(F)(F)F)cc4)c3n2)CC1` [Compound 122, 3-{5-[4-(2-methoxyethyl)piperazin-1-yl]-1H-pyrrolo[3,2-b]pyridin-3-yl}-1-[4-(trifluoromethyl)phenyl]urea], the EC50 lay in the range of 5 to 100 µM.
The result for `O=C(Nc1ccc(C(F)(F)F)cc1)Nc1c[nH]c2ccc(N3CCN(CCC(F)(F)F)CC3)nc12` [Compound 123, 1-[4-(trifluoromethyl)phenyl]-3-{5-[4-(3,3,3-trifluoropropyl)piperazin-1-yl]-1H-pyrrolo[3,2-b]pyridin-3-yl}urea] reads 5 to 100 µM; that for `CC(C)CN1CCN(c2ccc3[nH]cc(NC(=O)Nc4ccc(C(F)(F)F)cc4)c3n2)CC1` [Compound 124, 3-{5-[4-(2-methylpropyl)piperazin-1-yl]-1H-pyrrolo[3,2-b]pyridin-3-yl}-1-[4-(trifluoromethyl)phenyl]urea], 5 to 100 µM.
In the case of `CN1CCN(c2ccc3[nH]cc(NC(=O)Nc4ccc(C(F)(F)F)cc4)c3n2)CC1` [Compound 125, 1-(5-(4-methylpiperazin-1-yl)-1H-pyrrolo[3,2-b]pyridin-3-yl)-3-(4-(trifluoromethyl)phenyl)urea] it was 5 to 100 µM.
The result for `CCN1CCN(c2ccc3[nH]cc(NC(=O)Nc4ccc(C(F)(F)F)c(Cl)c4)c3n2)CC1` [Compound 126, 1-(3-chloro-4-(trifluoromethyl)phenyl)-3-(5-(4-ethylpiperazin-1-yl)-1H-pyrrolo[3,2-b]pyridin-3-yl)urea] reads 5 to 100 µM.
Compound `CCN1CCN(c2ccc3[nH]cc(NC(=O)Nc4ccc(C(F)(F)F)cc4)c3n2)CC1` [Compound 127, 1-(5-(4-ethylpiperazin-1-yl)-1H-pyrrolo[3,2-b]pyridin-3-yl)-3-(4-(trifluoromethyl)phenyl)urea] displayed an EC50 of 5 to 100 µM.
In the case of `CC(C)(C)OC(=O)N1CCN(c2ccc3[nH]cc(NC(=O)Nc4ccc(C(F)(F)F)cc4)c3n2)CC1` [Compound 128, tert-butyl 4-(3-(3-(4-(trifluoromethyl)phenyl)ureido)-1H-pyrrolo[3,2-b]pyridin-5-yl)piperazine-1-carboxylate] it was 5 to 100 µM; in that of `O=C(Nc1ccc(C(F)(F)F)cc1)Nc1c[nH]c2ccc(N3CCN(c4ccccc4)CC3)nc12` [Compound 129, 1-(5-(4-phenylpiperazin-1-yl)-1H-pyrrolo[3,2-b]pyridin-3-yl)-3-(4-(trifluoromethyl)phenyl)urea], 0.2 to 1 µM; in that of `CC(C)c1cnn(-c2ccc3[nH]cc(NC(=O)Nc4ccc(C(F)(F)F)cc4)c3n2)c1` [Compound 131, 1-(5-(4-isopropyl-1H-pyrazol-1-yl)-1H-pyrrolo[3,2-b]pyridin-3-yl)-3-(4-(trifluoromethyl)phenyl)urea], 5 to 100 µM.
As to `CC(C)c1ccn(-c2ccc3[nH]cc(NC(=O)Nc4ccc(C(F)(F)F)cc4)c3n2)n1` [Compound 132, 1-(5-(3-isopropyl-1H-pyrazol-1-yl)-1H-pyrrolo[3,2-b]pyridin-3-yl)-3-(4-(trifluoromethyl)phenyl)urea], the EC50 lay within 5 to 100 µM.
